No end group written: not given here.
Key:
[1] = target: T1, rat PTH-1 receptor (endogenous, ROS 17/2.8 cells) (Rattus norvegicus, UniProt P25961); assay: cAMP response in osteoblastic ROS 17/2.8 cells; format: cell-based; settings: for Emax: ROS 17/2.8 cells
T1 construct: The rat osteoblastic cell line ROS 17/2.8; endogenous in cells; host or cells: ROS 17/2.8 rat osteoblastic cells
T1 sequence (P25961 27-591): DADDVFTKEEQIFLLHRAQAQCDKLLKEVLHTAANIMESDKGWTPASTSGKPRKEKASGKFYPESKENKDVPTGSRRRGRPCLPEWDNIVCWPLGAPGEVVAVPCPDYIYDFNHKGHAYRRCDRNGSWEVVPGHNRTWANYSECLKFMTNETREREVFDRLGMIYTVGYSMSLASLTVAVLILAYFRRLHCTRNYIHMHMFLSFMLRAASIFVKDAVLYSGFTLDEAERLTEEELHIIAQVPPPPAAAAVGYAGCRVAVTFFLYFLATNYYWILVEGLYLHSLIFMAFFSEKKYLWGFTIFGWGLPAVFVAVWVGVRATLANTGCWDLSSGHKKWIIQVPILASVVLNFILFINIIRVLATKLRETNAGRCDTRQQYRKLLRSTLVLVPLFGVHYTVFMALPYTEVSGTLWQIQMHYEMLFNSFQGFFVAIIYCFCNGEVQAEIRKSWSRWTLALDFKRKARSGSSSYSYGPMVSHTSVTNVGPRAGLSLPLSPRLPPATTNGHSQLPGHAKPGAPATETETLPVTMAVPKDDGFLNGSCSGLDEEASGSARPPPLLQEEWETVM
Description: The rat osteoblastic cell line ROS 17/2.8 (Majeska, R. J., et al, Endocrinology 107:1494-1503 (1980)) expresses endogenous PTH-1 receptors at levels of 80,000 per cell and the human osteoblastic cell line, SAOS-2, express endogenous PTH-1 receptors at levels of ˜30,000 per cell.
(§1) Stimulation of cells with peptide analogs was performed in 24-well plates. Cells were rinsed with 0.5 mL of binding buffer and treated with 200 μL of cAMP assay buffer (Dulbecco's modified Eagle's medium containing 2 mM 3-isobutyl-1-methylxanthine, 1 mg/mL bovine serum albumin, 35 mM Hepes-NaOH, pH 7.4) and 100 μL of binding buffer containing varying amounts of peptide analog (final volume=300 μL). The medium was removed after incubation for 1 h at room temperature, and the cells were frozen (−80° C.), lysed with 0.5 mL 50 mM HCl, and refrozen (−80° C.). The cAMP content of the diluted lysate was determined by radioimmunoassay. Where possible, cAMP EC50 and Maximum response values were determined using nonlinear regression (see below).
All calculations were performed using Microsoft Excel. Nonlinear regression analysis of cAMP stimulation data was performed using parameters, defined as the Minimum, Maximum, Emax, midpoint (EC50), and slope of the response curve. The predicted response (yp) for a given dose (x) of peptide was calculated using the following equation: yp=Min+[(Max−Min)/(1+(EC50/x)^slope)]. The initial parameter values were estimated from the primary data, and the Excel “Solver function” was then used to vary the four parameters in order to minimize the differences between the predicted and actual responses (least-squares method) (Bowen, W., & Jerman, J., Trends in Pharmacol. Sci. 16:413-417 (1995)). The statistical significance between two data sets was determined using a one-tailed Student's t-test, assuming unequal variances for the two sets.

[2] = target: T2, hPTH-2 Receptor (Homo sapiens, UniProt P49190); assay: cAMP stimulation in LLC-P2R-22 cells (LLC-PK1 stably transfected with hPTH-2 receptor); format: cell-based; settings: for EC50 Log M / Emax: LLC-P2R-22 cells (hPTH-2 Receptor)
T2 construct: expressed in transfected cells; host or cells: LLC-PK1 porcine kidney cells (clone given as hPR2-20, hPR2-22, LLC-P2R-22 or P2R-22)
Description: Stably transfected derivatives of the porcine kidney cell line LLC-PK1, HKRK-B7 (Takasu, H., et al., J. Bone Miner. Res. 14:11-20 (1999)) and hPR2-20, express the human PTH-1 and human PTH-2 receptors respectively. The HKRK-B7 LLC-PK1 cell line expresses the hPTH-1 receptor at ˜1×10^6 receptors/cell (Takasu, H., et al., J. Bone Miner. Res. 14:11-20 (1999)), and the hPR2-22 LLC-PK1 cell line expresses the hPTH-2 receptor at ˜0.8×10^6 receptors/cell (provided by H. Takasu and F. R. Bringhurst, Endocrine Unit, Massachusetts General Hospital).
as §1
Intracellular cAMP accumulation may be measured as described by Abou-Samra et al., J. Biol. Chem. 262:1129, 1986) or other methods known to those of skill in the art. Intracellular cAMP is extracted by thawing the cells in 1 ml of 50 mM HCl and analyzed by a specific radioimmunoassay using an anti-cAMP antibody (e.g., Sigma, St. Louis, Mo.). A cAMP analog (2′-O-monosuccinyl-adenosine 3′:5′-cyclic monophosphate tyrosyl methyl ester, obtained from Sigma) which is used as a tracer for cAMP is iodinated by the chloramine T method. Free iodine is removed by adsorbing the iodinated cAMP analog onto a C18 Sep-pak cartridge (Waters, Milford, Mass.). After washing with dH2O, the iodinated cAMP analog is eluted from the Sep-pak Cartridge with 40% acetonitrille (ACN) and 0.1% trifluoroacetic acid (TFA). The iodinated cAMP analog is lyophilized, reconstituted in 1 ml 0.1% TFA, and injected into a C18 reverse phase HPLC column (Waters). The column is equilibrated with 10% ACN in 0.1% TFA, and eluted with gradient of 10-30% ACN in 0.1% TFA. This allows separation of the mono-iodinated cAMP analog from the non-iodinated cAMP analog. The tracer is stable for up to 4 months when stored at −20° C. The standard used for the assay, adenosine 3′:5′-cyclic monophosphate, is purchased from Sigma. Samples (1-10 µl of HCl extracts) or standards (0.04-100 fmol/tube) are diluted in 50 mM Na-acetate (pH 5.5), and acetylated with 10 μl of mixture of triethylamine and acetic anhydride (2:1 vol:vol). After acetylation, cAMP antiserum (100 μl) is added from a stock solution (1:4000) made in PBS (pH 7.4), 5 mM EDTA and 1% normal rabbit serum. The tracer is diluted in PBS (pH 7.4) with 0.1% BSA, and added (20,000 cpm/tube). The assay is incubated at 4° C. overnight. The bound tracer is precipitated by adding 100 μl of goat anti-rabbit antiserum (1:20 in PBS) and 1 ml of 7% polyethyleneglycol (MW 5000-6000), centrifuging at 2000 rpm for 30 min. at 4° C. The supernatant is removed and the bound radioactivity is counted in a gamma-counter (Micromedic). To compute the cAMP data, logit calculations were performed in Excel spreadsheets. Typically, the assay sensitivity is 0.1 fmol/tube, and the standard concentration that displaces 50% of tracer is 5 fmol/tube.
All calculations were performed using Microsoft Excel. Nonlinear regression analysis of cAMP stimulation data was performed using parameters, defined as the Minimum, Maximum, Emax, midpoint (EC50), and slope of the response curve. The predicted response (yp) for a given dose (x) of peptide was calculated using the following equation: yp=Min+[(Max−Min)/(1+(EC50/x)^slope)]. […]

[3] = LLC-PK1 cells expressing PTH-2 receptor, cAMP

T2 sequence (P49190 25-550): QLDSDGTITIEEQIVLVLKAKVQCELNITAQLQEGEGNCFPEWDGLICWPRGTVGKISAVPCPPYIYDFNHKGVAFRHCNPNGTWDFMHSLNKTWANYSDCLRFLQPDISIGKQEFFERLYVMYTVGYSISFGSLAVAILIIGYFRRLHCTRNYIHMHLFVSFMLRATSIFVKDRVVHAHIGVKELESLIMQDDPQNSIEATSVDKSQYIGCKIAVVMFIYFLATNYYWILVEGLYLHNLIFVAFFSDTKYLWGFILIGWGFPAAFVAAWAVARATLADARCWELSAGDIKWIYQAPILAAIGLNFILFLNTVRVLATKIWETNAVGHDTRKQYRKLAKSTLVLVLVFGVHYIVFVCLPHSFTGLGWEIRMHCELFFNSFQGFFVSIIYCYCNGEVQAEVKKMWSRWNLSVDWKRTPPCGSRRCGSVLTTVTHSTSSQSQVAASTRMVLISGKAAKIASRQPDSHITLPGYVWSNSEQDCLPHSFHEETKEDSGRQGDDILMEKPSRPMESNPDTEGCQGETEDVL

| Compound | Emax [1] [picomole/well] | EC50 Log M ([2]; cAMP) | Emax [2] [picomole/well] | potency relative to PTH(1-34) [2, 3] | stimulation of the PTH-2 receptor (in words) [2, 3] | EC50 [1] [nM] |
| --- | --- | --- | --- | --- | --- | --- |
| AVAEIQLMHAR-NH2 [compound 6, AlaValAlaGluIleGlnLeuMetHisAlaArg-amide] | 377 ± 23 | weakly | – | – | – | – |
| AVAEIQLMHARAKH-NH2 [Peptide #1, AlaValAlaGluIleGlnLeuMetHisAlaArgAlaLysHis-amide] | 395 ± 1 | – | 292 ± 100 | four to five orders of magnitude weaker | active | – |
| AVSEIQLMHNLGKH-NH2 [native rPTH(1-14), AVSEIQLMHNLGKH, reference compound] | 376 ± 23 | inactive | – | – | did not stimulate | – |
| AVAEIQLMHARAKHLNSMERVEWLRKKLQDVHNY-NH2 [Peptide #7] | 395 ± 1 | – | 677 | – | – | – |
| CCCC[C@H](NC(=O)[C@H](CCCNC(=N)N)NC(=O)[C@H](CCC(=O)O)NC(=O)[C@@H](NC(=O)[C@H](CO)NC(=O)[C@H](C)NC(=O)[C@H](CC(C)C)NC(=O)[C@H](Cc1c[nH]cn1)NC(=O)[C@H](CCCCN)NC(=O)CNC(=O)[C@H](CC(C)C)NC(=O)[C@H](CC(N)=O)NC(=O)[C@H](Cc1c[nH]cn1)NC(=O)[C@H](CCCC)NC(=O)[C@H](CC(C)C)NC(=O)[C@H](CCC(N)=O)NC(=O)[C@@H](NC(=O)[C@H](CCC(=O)O)NC(=O)[C@H](CO)NC(=O)[C@@H](NC(=O)[C@H](C)N)C(C)C)[C@@H](C)CC)C(C)C)C(=O)N[C@@H](CCC(N)=O)C(=O)N[C@@H](Cc1c[nH]c2ccccc12)C(=O)N[C@@H](CC(C)C)C(=O)N[C@@H](CCCNC(=N)N)C(=O)N[C@@H](CCCCN)C(=O)N[C@@H](CCCCN)C(=O)N[C@@H](CC(C)C)C(=O)N[C@@H](CCC(N)=O)C(=O)N[C@@H](CC(=O)O)C(=O)N[C@H](C(=O)N[C@@H](Cc1c[nH]cn1)C(=O)N[C@@H](CC(N)=O)C(=O)N[C@@H](Cc1ccc(O)cc1)C(N)=O)C(C)C [[Nle8, 21, Y34]rPTH(1-34), [Nle^8,21,Tyr^34]-rPTH(1-34)NH2, reference compound] | 364 ± 6 | – | 744 ± 48 | – | – | 0.316 |

Reference: patent US8568736B2, “Polypeptide derivatives of parathyroid hormone (PTH)” (The General Hospital Corporation, priority 1999, dated 2013)
